Measurements reported in PMC11587651, “Increased cytoplasmic expression of PETase enzymes in E. coli” (Microbial Cell Factories, 2024).

Biological target: T1, HiC (Mycothermus thermophilus, UniProt A0A075B5G4)
T1 construct: commercial enzyme Novozym 51032 (Strem), used as supplied
T1 sequence (A0A075B5G4 1-194): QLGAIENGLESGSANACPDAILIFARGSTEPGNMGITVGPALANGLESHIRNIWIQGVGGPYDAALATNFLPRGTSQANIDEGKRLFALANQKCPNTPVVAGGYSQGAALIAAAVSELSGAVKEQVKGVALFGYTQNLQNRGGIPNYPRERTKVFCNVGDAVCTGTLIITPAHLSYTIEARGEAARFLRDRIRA
Experiment: HPLC of BHET to MHET conversion
Type: biochemical
Conditions: 24% acetonitrile, 76% 100 mM potassium phosphate pH 7, 40 °C, 0.1 g HiC per g BHET; product MHET

O=C(OCCO)c1ccc(C(=O)OCCO)cc1 [bis(2-hydroxyethyl) terephthalic acid]
HPLC of BHET to MHET conversion: enzymatic hydrolysis of BHET using Humicola insolens cutinase (HiC
